# Active and inactive are the calls of the source.
# Experiments:
# [1] = target: T1, Dual specificity protein phosphatase 3 (Homo sapiens, UniProt P51452); experiment: VHR1 phosphatase inhibitors, primary screen, biochemical, absorbance, uHTS (AID 1654)
# [2] = target: T2, RNA-binding protein pos-1 (Caenorhabditis elegans, UniProt G5EF15); experiment: inhibitors of POS-1/mex-3 RNA binding, dose response, biochemical, fluorescence polarization (AID 1964);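 also: purified POS-1 fused to maltose binding protein made in E. coli; potency of compounds blocking POS-1 binding to fluorescent RNA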
# T2 sequence (G5EF15 whole entry): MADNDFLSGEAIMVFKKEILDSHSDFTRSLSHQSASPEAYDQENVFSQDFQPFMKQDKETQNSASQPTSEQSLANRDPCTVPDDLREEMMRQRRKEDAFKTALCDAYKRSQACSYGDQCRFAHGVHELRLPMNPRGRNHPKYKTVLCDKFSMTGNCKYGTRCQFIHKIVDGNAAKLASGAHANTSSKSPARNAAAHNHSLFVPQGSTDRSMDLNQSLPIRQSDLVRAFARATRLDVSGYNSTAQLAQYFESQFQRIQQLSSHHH
# [3] = target: T3, Zinc finger protein mex-5 (Caenorhabditis elegans, UniProt Q9XUB2); experiment: MEX-5/TCR-2 RNA interaction inhibitors, dose response, biochemical, C. elegans, fluorescence polarization (AID 1960)
# T3 sequence (Q9XUB2 whole entry): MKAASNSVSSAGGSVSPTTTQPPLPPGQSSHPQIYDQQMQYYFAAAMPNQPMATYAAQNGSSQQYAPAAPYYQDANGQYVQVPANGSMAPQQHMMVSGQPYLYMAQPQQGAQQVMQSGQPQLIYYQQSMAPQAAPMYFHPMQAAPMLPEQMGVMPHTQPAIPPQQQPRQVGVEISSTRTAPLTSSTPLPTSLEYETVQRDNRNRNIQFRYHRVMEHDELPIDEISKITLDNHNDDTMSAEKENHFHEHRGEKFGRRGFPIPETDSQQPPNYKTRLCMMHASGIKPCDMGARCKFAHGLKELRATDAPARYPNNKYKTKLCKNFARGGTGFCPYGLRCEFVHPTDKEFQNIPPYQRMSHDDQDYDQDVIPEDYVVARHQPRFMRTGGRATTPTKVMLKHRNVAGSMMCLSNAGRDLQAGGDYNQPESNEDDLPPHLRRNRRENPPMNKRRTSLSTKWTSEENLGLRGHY
# [4] = target: T1, Dual specificity protein phosphatase 3; experiment: VHR1 phosphatase inhibitors, biochemical (AID 1878)
# [5] = target: T4, Dual specificity protein phosphatase 6 (Rattus norvegicus, UniProt Q64346); experiment: MKP-3 phosphatase inhibitors, primary screen, biochemical, rat enzyme, in vitro (AID 425)
# T4 sequence (Q64346 whole entry): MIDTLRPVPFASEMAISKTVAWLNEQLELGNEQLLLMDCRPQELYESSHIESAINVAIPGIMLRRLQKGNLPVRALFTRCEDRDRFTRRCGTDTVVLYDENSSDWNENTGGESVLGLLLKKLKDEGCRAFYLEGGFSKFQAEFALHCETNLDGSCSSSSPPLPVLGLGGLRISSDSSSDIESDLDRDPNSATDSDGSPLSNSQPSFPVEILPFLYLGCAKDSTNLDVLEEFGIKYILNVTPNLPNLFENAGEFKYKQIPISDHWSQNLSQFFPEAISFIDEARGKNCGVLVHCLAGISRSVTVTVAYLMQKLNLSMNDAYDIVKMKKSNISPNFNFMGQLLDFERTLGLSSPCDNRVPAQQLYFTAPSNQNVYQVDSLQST
# [6] = target: T5, Carboxy-terminal domain RNA polymerase II polypeptide A small phosphatase 1 (Homo sapiens, UniProt Q9GZU7); experiment: inhibitors of CTDSP1, concentration-response testing, biochemical assay, absorbance-based, actives from ultra-high-throughput screening (AID 540297); type: functional
# T5 sequence (Q9GZU7 whole entry): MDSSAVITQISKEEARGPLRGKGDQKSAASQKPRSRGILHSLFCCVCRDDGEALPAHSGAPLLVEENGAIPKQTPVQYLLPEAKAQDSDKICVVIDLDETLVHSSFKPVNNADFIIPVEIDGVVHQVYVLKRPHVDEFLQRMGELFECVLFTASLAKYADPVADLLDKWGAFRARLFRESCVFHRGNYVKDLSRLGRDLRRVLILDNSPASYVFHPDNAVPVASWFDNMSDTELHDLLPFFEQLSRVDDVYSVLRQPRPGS
# CAAX prenyl protease 2 = target: T6, CAAX prenyl protease 2 (Saccharomyces cerevisiae S288c, UniProt Q03530); type: biochemical
# T6 sequence (Q03530 whole entry): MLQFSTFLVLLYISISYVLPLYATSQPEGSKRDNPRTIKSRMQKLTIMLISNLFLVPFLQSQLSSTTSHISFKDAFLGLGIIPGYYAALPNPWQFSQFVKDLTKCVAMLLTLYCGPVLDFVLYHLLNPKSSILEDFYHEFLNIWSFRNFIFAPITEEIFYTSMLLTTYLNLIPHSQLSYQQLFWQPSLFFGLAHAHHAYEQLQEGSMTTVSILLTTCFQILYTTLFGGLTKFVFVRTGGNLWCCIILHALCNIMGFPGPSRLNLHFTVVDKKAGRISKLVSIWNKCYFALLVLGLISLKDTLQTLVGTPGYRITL
# [7] = mammalian cell cytotoxicity, dose response, cytotoxicity control, plate reader, cherry-pick samples (AID 504397); type: functional, cell-based
# [8] = target: T7, Tyrosine-protein phosphatase non-receptor type 7 (Homo sapiens, UniProt P35236); type: functional
# T7 sequence (P35236 whole entry): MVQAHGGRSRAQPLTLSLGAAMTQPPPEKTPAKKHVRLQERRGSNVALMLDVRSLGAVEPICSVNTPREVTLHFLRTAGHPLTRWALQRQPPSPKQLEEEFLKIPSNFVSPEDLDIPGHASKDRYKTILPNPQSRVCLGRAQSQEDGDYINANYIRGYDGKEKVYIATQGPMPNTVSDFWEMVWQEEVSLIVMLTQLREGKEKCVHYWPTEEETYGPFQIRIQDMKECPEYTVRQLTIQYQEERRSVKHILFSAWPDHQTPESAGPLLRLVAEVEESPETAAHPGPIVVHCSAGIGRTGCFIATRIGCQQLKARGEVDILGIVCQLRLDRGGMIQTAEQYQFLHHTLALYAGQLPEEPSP
# [9] = target: T8, Tyrosine-protein phosphatase non-receptor type 22 (Homo sapiens, UniProt Q9Y2R2); type: functional
# T8 sequence (Q9Y2R2 whole entry): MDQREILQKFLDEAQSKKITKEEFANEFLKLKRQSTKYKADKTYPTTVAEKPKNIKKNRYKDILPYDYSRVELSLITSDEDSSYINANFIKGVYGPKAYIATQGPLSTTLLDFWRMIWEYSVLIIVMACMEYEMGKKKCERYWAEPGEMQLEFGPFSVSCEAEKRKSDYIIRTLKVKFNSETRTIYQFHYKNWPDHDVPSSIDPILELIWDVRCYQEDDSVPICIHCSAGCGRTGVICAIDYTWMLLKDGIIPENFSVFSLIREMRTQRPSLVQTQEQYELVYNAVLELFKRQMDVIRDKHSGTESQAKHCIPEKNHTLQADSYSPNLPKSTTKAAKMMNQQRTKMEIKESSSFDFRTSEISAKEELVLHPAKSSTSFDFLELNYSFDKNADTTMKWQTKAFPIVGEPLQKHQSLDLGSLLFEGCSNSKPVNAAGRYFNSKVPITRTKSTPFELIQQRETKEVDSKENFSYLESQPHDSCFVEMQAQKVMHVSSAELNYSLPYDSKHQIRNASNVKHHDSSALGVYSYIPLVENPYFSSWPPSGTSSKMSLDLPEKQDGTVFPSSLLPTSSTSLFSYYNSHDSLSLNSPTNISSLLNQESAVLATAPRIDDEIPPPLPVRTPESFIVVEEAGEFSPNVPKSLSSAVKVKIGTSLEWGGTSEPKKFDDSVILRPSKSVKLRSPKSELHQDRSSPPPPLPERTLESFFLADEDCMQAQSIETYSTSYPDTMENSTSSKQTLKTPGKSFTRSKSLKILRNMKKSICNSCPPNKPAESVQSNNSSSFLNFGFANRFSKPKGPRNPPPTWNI
# [10] = target: T8, Tyrosine-protein phosphatase non-receptor type 22; type: functional; remark: listed apart in the source
# SUMO-activating enzyme = SUMO-activating enzyme (Homo sapiens, UniProt Q9UBT2); experiment: SUMOylation inhibitor hit validation, confirmation, SUMOylation inhibitor project, biochemical, AlphaScreen (AID 2018); type: functional
# [11] = target: T9, Corticotropin-releasing factor receptor 2/Corticotropin-releasing factor-binding protein (Homo sapiens, UniProt P24387+Q13324); experiment: activators of CRF receptor 2 with binding protein – uHTS hits, confirmation (AID 602473); type: functional; details: read-out: EC50_Mean
# T9 sequence (Q13324 whole entry): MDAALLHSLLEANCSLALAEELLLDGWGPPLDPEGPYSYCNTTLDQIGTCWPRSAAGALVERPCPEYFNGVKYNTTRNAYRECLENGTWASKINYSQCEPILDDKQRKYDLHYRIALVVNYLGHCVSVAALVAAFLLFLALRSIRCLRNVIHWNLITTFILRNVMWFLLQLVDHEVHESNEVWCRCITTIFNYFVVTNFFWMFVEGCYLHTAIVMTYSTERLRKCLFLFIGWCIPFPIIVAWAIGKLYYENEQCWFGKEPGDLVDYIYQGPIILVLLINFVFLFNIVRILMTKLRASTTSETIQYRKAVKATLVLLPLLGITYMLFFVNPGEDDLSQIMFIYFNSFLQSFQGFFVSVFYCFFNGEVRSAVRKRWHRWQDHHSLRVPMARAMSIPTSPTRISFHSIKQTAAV
# T9 sequence (P24387 whole entry): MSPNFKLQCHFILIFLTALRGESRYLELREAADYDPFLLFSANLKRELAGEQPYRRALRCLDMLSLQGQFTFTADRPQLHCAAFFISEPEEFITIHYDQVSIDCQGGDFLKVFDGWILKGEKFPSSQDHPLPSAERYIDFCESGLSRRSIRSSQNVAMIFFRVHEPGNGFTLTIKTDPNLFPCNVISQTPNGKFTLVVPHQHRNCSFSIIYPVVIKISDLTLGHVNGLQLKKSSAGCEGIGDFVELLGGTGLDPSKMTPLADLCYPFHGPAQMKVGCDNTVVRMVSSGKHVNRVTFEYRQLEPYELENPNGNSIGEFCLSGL
# [12] = target: T10, Runt-related transcription factor 1/Core-binding factor subunit beta (Homo sapiens, UniProt Q01196+Q13951); experiment: inhibitors of RUNX1 Runt–CBFb-SMMHC binding, primary screen, biochemical, FRET, Cerulean-Runt, Venus-CBFb-SMMHC, uHTS (AID 1434); type: protein assay;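 also: partner is the CBFb-SMMHC leukemia fusion protein rather than wild-type CBFb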
# [13] = target: T10, Runt-related transcription factor 1/Core-binding factor subunit beta; experiment: inhibitors of RUNX1 Runt–CBFb-SMMHC binding, biochemical, TR-FRET (AID 1438); type: protein assay
# Troponin, cardiac muscle = Troponin, cardiac muscle (Homo sapiens, UniProt P19429+P45379+P63316); experiment: Fluorescence-based biochemical high throughput dose response assay for activators of the calcium sensitivity of cardiac Regulated Thin Filaments (RTF). [Related pubchem assays (depositor defined):AID493008, AID493018, AID504382, AID504383]; type: protein-complex assay
# [14] = target: T7, Tyrosine-protein phosphatase non-receptor type 7; experiment: HePTP (PTPN7) phosphatase inhibitor potency, SAR follow-up, biochemical, set 2 (AID 449736); type: functional
# [15] = target: T11, G-protein coupled receptor 35 (Homo sapiens, UniProt Q9HC97); experiment: SAR analysis of Agonists of the GPR35 Receptor using an Image-Based Assay - Set 4. [Related pubchem assays (depositor defined):AID2013, AID2026]; type: functional
# Cannabinoid receptor 1 [16] = target: T12, Cannabinoid receptor 1 (Homo sapiens, UniProt P21554); experiment: SAR analysis of agonists of the Cannabinoid Receptor 1 using an Image-Based Assay - Set 4. [Related pubchem assays (depositor defined):AID2013, AID2026]; type: functional
# [17] = target: T11, G-protein coupled receptor 35; experiment: SAR analysis of Antagonists of the GPR35 Receptor using an Image-Based Assay - Set 6. [Related pubchem assays (depositor defined):AID2013, AID2026]; type: functional
# Cannabinoid receptor 1 [18] = target: T12, Cannabinoid receptor 1; experiment: SAR analysis of antagonists of the Cannabinoid Receptor 1 using an Image-Based Assay - Set 4. [Related pubchem assays (depositor defined):AID2013, AID2026]; type: functional
# [19] = target: G-protein coupled receptor 55 (Homo sapiens, UniProt Q9Y2T6); experiment: SAR Analysis of Selective Antagonists of GPR55 using an Image-Based Assay - Set 4. [Related pubchem assays (depositor defined):AID2013, AID2026]; type: functional;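 also: antagonism of response to 5 µM lysophosphatidylinositol agonist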
# Cannabinoid receptor 2 [20] = target: T13, Cannabinoid receptor 2 (Homo sapiens, UniProt P34972); experiment: SAR analysis of antagonists of the Cannabinoid Receptor 2 using an Image-Based Assay - Set 3. [Related pubchem assays (depositor defined):AID2013, AID2026]; type: functional
# Cannabinoid receptor 2 [21] = target: T13, Cannabinoid receptor 2; experiment: SAR analysis of agonists of the Cannabinoid Receptor 2 using an Image-Based Assay - Set 3. [Related pubchem assays (depositor defined):AID2013, AID2026]; type: functional
compound,measurement,setting,value
Cc1ccc(NC(=O)CN2C(=O)S/C(=C\c3cccn3-c3cccc(C(=O)O)c3)C2=O)cc1C,IC50,[1],6.14 µM (active)
same,EC50,[2],> 300 µM (not active)
same,EC50,[3],> 300 µM (not active)
same,IC50,[4],4.36 µM (active)
same,IC50,[5],17.2 µM (active)
same,IC50,[6],3.28 µM (active)
COc1ccc(-c2cc(C(=O)N3CCN(c4ccccc4)CC3)c3ccccc3n2)cc1,AC50,CAAX prenyl protease 2,4.71 µM (active)
same,AC50,[7],57.4 µM (active)
CCc1nc2cc([N+](=O)[O-])c([N+](=O)[O-])cc2[nH]1,IC50,[8],> 79.4 µM (inactive)
same,IC50,[9],> 79.4 µM (inactive)
same,IC50,[10],> 79.4 µM (inactive)
O=C(Nc1nnc(-c2ccccc2)o1)c1nc2ccccc2s1,IC50,SUMO-activating enzyme,16.3 µM (active)
same,EC50,[11],7.07 µM (active)
C=CCOc1c(Br)cc(C2C3=C(CCCC3=O)N(C)C3=C2C(=O)CCC3)cc1OCC,IC50,[12],0.865 µM (active)
same,IC50,[13],41.2 µM (active)
COc1ccc(C(=O)Nn2cnc3scc(-c4cccs4)c3c2=O)c(O)c1,EC50,"Troponin, cardiac muscle",> 71.5 µM (inactive)
Cc1cccc(NC(=S)Nc2ccc(S(N)(=O)=O)cc2)c1,IC50,[14],> 100 µM (inactive)
Cc1nc(N2CCN(C(=O)C3CC3)CC2)c2c3c(sc2n1)CC(C)CC3 (centres undefined),EC50,[15],> 32 µM (inactive)
same,EC50,Cannabinoid receptor 1 [16],> 32 µM (inactive)
same,IC50,[17],> 32 µM (inactive)
same,IC50,Cannabinoid receptor 1 [18],17.9 µM (inactive)
same,IC50,[19],10.6 µM (inactive)
same,IC50,Cannabinoid receptor 2 [20],> 32 µM (inactive)
same,EC50,Cannabinoid receptor 2 [21],> 32 µM (inactive)

# From ChEMBL document CHEMBL1201862, “PubChem BioAssay data set” (2004)
